# Results as given in article PMC11981937 (Nature, 2025).
# “And” between values parts separate entries of the source, which are not always exact repeats. Identical values can stand only once. “Also recorded” adds a separate entry of the source. Like-named read-outs stand apart in the source and are kept apart here.
# Experiments:
# [1] = Post-exposure Syrian golden hamster model, body weight; conditions: in vivo, 75 mg/kg
# SARS-CoV-2 B1 = format: in vivo, Syrian golden hamster; conditions: for Histopathology score, average / Histopathology score, median / Infectious virus in the lung (TCID50/mg), average Log 10 / Infectious virus in the lung (TCID50/mg), median Log 10 / Viral load (viral RNA) in the lung, average Log 10 / Viral load (viral RNA) in the lung, median Log 10: n=5; for Histopathology score, individual animal / Infectious virus in the lung (TCID50/mg), Log 10, individual animal / Infectious virus in the lung, individual animal / Viral load (viral RNA) in the lung, Copy number, individual animal / Viral load (viral RNA) in the lung, Log 10, individual animal: listed as 87009676-AAA
# Pg-CoV = assay: microbe, parasite or virus in culture; format: cell-based; conditions: Pangolin coronavirus
# in vivo [2] = conditions: dog
# MHV = MHV antiviral assay in Huh7 cells (luciferase); format: cell-based, mouse hepatitis virus; conditions: Murine coronavirus, Huh-7, Huh7, MHV (betaCoV), N=2
# IBV = assay: microbe, parasite or virus in culture; format: cell-based, infectious bronchitis virus
# WIV-1 = assay: organism not typed; format: cell-based, bat WIV-1
# [3] = target: T1, purified recombinant M protein (Severe acute respiratory syndrome coronavirus 2, UniProt P0DTC5); format: binding, SARS-CoV-2; conditions: 5 µM compound
# T1 construct: SARS-CoV-2 M protein (1–222, UniProt: P0DTC5); ALFA-tag (C); C-tag (EPEA) (C); made in house; host or cells: Expi293F cells (Invitrogen), transient transfection of a pcDNA3.4 construct
# in vivo [4] = conditions: cynomolgus monkey
# HCoV-229E = assay: microbe, parasite or virus in culture; format: cell-based
# HCoV-OC43 = HCoV-OC43 antiviral CPE reduction assay in MRC-5 cells; format: cell-based
# From the text: 161 determined with Promega CellTiter 96™ via a colorimetric assay (MTS assay). Readout was done
# 162 using a GloMax® Discover Microplate Reader (Promega).
# 163 Data were normalized taking the infected cells without treatment and the mock non-infected cells
# 164 as the bottom and top values of the dose-response curves, respectively. Dose-response curves were
# 165 fitted using non-linear regression analysis employing a sigmoidal model in Graphpad Prism
# 166 (version 9.5.0). In each experiment, data were presented as mean ± standard error of the mean of
# 167 3 technical replicates.
# 168 HCoV-OC43 antiviral CPE reduction assay
# 169 For the HCoV-OC43 CPE reduction assay, MRC-5 cells were seeded in black or white 96-well
# 170 plates (Greiner Bio-One) at a density of 10,000 cells/well and incubated overnight at 37°C. The
# 171 next day, compound was added to the assay plates in either a 4-fold dilution series or 2-fold dilution
# 172 series. Sequentially, cells were infected with HCoV-OC43 at a final MOI of 0.3. Plates were then
# 173 incubated for 6 days at 33°C under 5% CO2. […]
# 174 determined using the Viral ToxGlo™ assay (Promega) on a BioTek spectrophotometer.
# 175 Cytotoxicity was evaluated in parallel in treated, uninfected cells in a similar set-up with the same
# 176 readout. EC50 and CC50 values were calculated using GraphPad Prism 9.5.0. […]
# 181 0.1. […] Readouts for antiviral activity […]
# [5] = tested on: SARS-CoV-2 (USA-WA1/2020); parameters: species or system Syrian golden hamster; conditions: hamster, in vivo
# [6] = pre-exposure, 8.33 mg/kg BID, 8.33 mg/kg
# [7] = pre-exposure, 25 mg/kg BID, 25 mg/kg
# [8] = pre-exposure, 75 mg/kg BID, 75 mg/kg
# [9] = pre-exposure, 8.33 mpk BID, 8.33 mg/kg
# [10] = pre-exposure, 25 mpk BID, 25 mg/kg
# [11] = pre-exposure, 75 mpk BID, 75 mg/kg
structure (smiles),measurement,setting,value
"C[C@H]1Cn2ncc(C(=O)Nc3cccc(C#N)c3)c2C(=O)N1c1ccc(C(F)(F)c2ccccc2)cc1 [JNJ-9676, (S)-N-(3-cyanophenyl)-5-(4-(difluoro(phenyl)methyl)phenyl)-6-methyl-4-oxo-4,5,6,7-tetrahydropyrazolo[1,5-a]pyrazine-3-carboxamide]",Average body weight change (%) on day 4 compared to day 0,[1],-0.615% and -5.840% and -3.968%
same,lowest effective dose,SARS-CoV-2 B1; Syrian golden hamster model,25 mg per kg BID
same,"Histopathology score, average","SARS-CoV-2 B1; pre-exposure, 8.33 mg/kg BID",1.80
same,"Histopathology score, median","SARS-CoV-2 B1; pre-exposure, 8.33 mg/kg BID",2.00
same,"Infectious virus in the lung (TCID50/mg), average Log 10","SARS-CoV-2 B1; pre-exposure, 8.33 mg/kg BID",4.72 Log 10
same,"Infectious virus in the lung (TCID50/mg), median Log 10","SARS-CoV-2 B1; pre-exposure, 8.33 mg/kg BID",4.67 Log 10
same,"Viral load (viral RNA) in the lung, average Log 10","SARS-CoV-2 B1; pre-exposure, 8.33 mg/kg BID",4.56 Log 10
same,"Viral load (viral RNA) in the lung, median Log 10","SARS-CoV-2 B1; pre-exposure, 8.33 mg/kg BID",4.62 Log 10
same,"Histopathology score, individual animal",SARS-CoV-2 B1; [6],2 and 1.5
same,"Infectious virus in the lung (TCID50/mg), Log 10, individual animal",SARS-CoV-2 B1; [6],5.82 Log 10 and 3.86 Log 10 and 4.99 Log 10 and 4.24 Log 10 and 4.67 Log 10
same,"Infectious virus in the lung, individual animal",SARS-CoV-2 B1; [6],662125.31 TCID50/mg and 7237.18 TCID50/mg and 98821.18 TCID50/mg and 17573.17 TCID50/mg and 46447.60 TCID50/mg
same,"Viral load (viral RNA) in the lung, Copy number, individual animal",SARS-CoV-2 B1; [6],2.23E+04 and 1.34E+05 and 8.49E+02 and 4.14E+04 and 6.27E+05
same,"Viral load (viral RNA) in the lung, Log 10, individual animal",SARS-CoV-2 B1; [6],4.35 Log 10 and 5.13 Log 10 and 2.93 Log 10 and 4.62 Log 10 and 5.80 Log 10
same,cumulative histopathological lung score (in words),"SARS-CoV-2 B1; pre-exposure, 25 mg per kg BID",reduced to the baseline; also recorded: significantly reduced
same,reduction of viral load in the lung,"SARS-CoV-2 B1; pre-exposure, 25 mg per kg BID, oral",3.5 log10[RNA copies per mg lung]
same,"Histopathology score, average","SARS-CoV-2 B1; pre-exposure, 25 mg/kg BID",1.40
same,"Histopathology score, median","SARS-CoV-2 B1; pre-exposure, 25 mg/kg BID",1.50
same,"Infectious virus in the lung (TCID50/mg), average Log 10","SARS-CoV-2 B1; pre-exposure, 25 mg/kg BID",0.81 Log 10
same,"Infectious virus in the lung (TCID50/mg), median Log 10","SARS-CoV-2 B1; pre-exposure, 25 mg/kg BID",1.28 Log 10
same,"Viral load (viral RNA) in the lung, average Log 10","SARS-CoV-2 B1; pre-exposure, 25 mg/kg BID",9.46 Log 10
same,"Viral load (viral RNA) in the lung, median Log 10","SARS-CoV-2 B1; pre-exposure, 25 mg/kg BID",9.30 Log 10
same,"Histopathology score, individual animal",SARS-CoV-2 B1; [7],1.5 and 1
same,"Infectious virus in the lung (TCID50/mg), Log 10, individual animal",SARS-CoV-2 B1; [7],-2.00 Log 10 and 4.24 Log 10 and 2.52 Log 10 and 1.28 Log 10
same,"Infectious virus in the lung, individual animal",SARS-CoV-2 B1; [7],0.01 TCID50/mg and 17417.65 TCID50/mg and 328.03 TCID50/mg and 19.08 TCID50/mg
same,"Viral load (viral RNA) in the lung, Copy number, individual animal",SARS-CoV-2 B1; [7],7.91E+09 and 1.46E+09 and 1.22E+09 and 1.99E+09 and 7.25E+09
same,"Viral load (viral RNA) in the lung, Log 10, individual animal",SARS-CoV-2 B1; [7],9.90 Log 10 and 9.16 Log 10 and 9.08 Log 10 and 9.30 Log 10 and 9.86 Log 10
same,cumulative histopathological lung score (in words),"SARS-CoV-2 B1; pre-exposure, 75 mg per kg BID",significantly reduced
same,"Histopathology score, average","SARS-CoV-2 B1; pre-exposure, 75 mg/kg BID",1.20
same,"Histopathology score, median","SARS-CoV-2 B1; pre-exposure, 75 mg/kg BID",1.00
same,"Infectious virus in the lung (TCID50/mg), average Log 10","SARS-CoV-2 B1; pre-exposure, 75 mg/kg BID",1.08 Log 10
same,"Infectious virus in the lung (TCID50/mg), median Log 10","SARS-CoV-2 B1; pre-exposure, 75 mg/kg BID",2.38 Log 10
same,"Viral load (viral RNA) in the lung, average Log 10","SARS-CoV-2 B1; pre-exposure, 75 mg/kg BID",4.57 Log 10
same,"Viral load (viral RNA) in the lung, median Log 10","SARS-CoV-2 B1; pre-exposure, 75 mg/kg BID",3.13 Log 10
same,"Histopathology score, individual animal",SARS-CoV-2 B1; [8],1 and 1.5
same,"Infectious virus in the lung (TCID50/mg), Log 10, individual animal",SARS-CoV-2 B1; [8],-2.00 Log 10 and 3.24 Log 10 and 3.78 Log 10 and 2.38 Log 10
same,"Infectious virus in the lung, individual animal",SARS-CoV-2 B1; [8],0.01 TCID50/mg and 1756.82 TCID50/mg and 5984.59 TCID50/mg and 240.02 TCID50/mg
same,"Viral load (viral RNA) in the lung, Copy number, individual animal",SARS-CoV-2 B1; [8],4.93E+02 and 1.36E+03 and 1.66E+06 and 2.19E+08 and 2.75E+02
same,"Viral load (viral RNA) in the lung, Log 10, individual animal",SARS-CoV-2 B1; [8],2.69 Log 10 and 3.13 Log 10 and 6.22 Log 10 and 8.34 Log 10 and 2.44 Log 10
same,"Infectious virus in the lung, reduction relative to vehicle",SARS-CoV-2 B1; [9],0.50 (p>0.05) log10 TCID50/mg lung and 0.50 (p>0.05) log10 TCID50/mg lung
same,"Viral load in the lung, reduction relative to vehicle",SARS-CoV-2 B1; [9],2.01 (p>0.05) log10 copies/mg lung and 2.01 (p>0.05) log10 copies/mg lung
same,"Infectious virus in the lung, reduction relative to vehicle",SARS-CoV-2 B1; [10],4.41 (p=0.02) log10 TCID50/mg lung and 4.41 (p=0.02) log10 TCID50/mg lung
same,"Viral load in the lung, reduction relative to vehicle",SARS-CoV-2 B1; [10],3.51 (p=0.0003 log10 copies/mg lung and 3.51 (p=0.0003) log10 copies/mg lung
same,"Infectious virus in the lung, reduction relative to vehicle",SARS-CoV-2 B1; [11],4.14 (p=0.03) log10 TCID50/mg lung and 4.14 (p=0.03) log10 TCID50/mg lung
same,"Viral load in the lung, reduction relative to vehicle",SARS-CoV-2 B1; [11],3.01 (p=0.0019) log10 copies/mg lung and 3.01 (p=0.0019) log10 copies/mg lung
same,EC50,Pg-CoV,0.004 to 0.006 µM
same,Vd,in vivo [2],8.2 L/kg
same,clearance,in vivo [2],< 1.5 mL/min/kg
same,half-life,in vivo [2],> 40 h
same,bioavailability,in vivo [2]; po,> 80%
same,EC50,MHV; read-out: Median EC50,3.4 µM
same,EC90,MHV; read-out: Median EC90,12.4 µM
same,EC50,"IBV; Avian coronavirus, Huh-7, read-out: Median EC50",8 µM
same,EC90,"IBV; Avian coronavirus, Huh-7, read-out: Median EC90",> 30 µM
same,potency (in words),IBV; gammacoronavirus IBV,single-digit micromolar potency
same,EC50,WIV-1,0.004 to 0.006 µM
same,compound recovery with M-protein:Fab B complex compared to M protein alone or M-protein:Fab E complex,[3],significantly higher
same,compound recovery with M protein relative to buffer-only control,[3]; 5 µM M protein,reproducible JNJ-9676 recovery
same,Vd,in vivo [4],5.1 L/kg
same,clearance,in vivo [4],1.9 mL/min/kg
same,half-life,in vivo [4],35 h
same,bioavailability,in vivo [4]; po,> 30%
same,EC50,"HCoV-229E; Human coronavirus 229E, Huh-7, read-out: Median EC50",> 30 µM
same,EC90,"HCoV-229E; Human coronavirus 229E, Huh-7, read-out: Median EC90",> 30 µM
same,antiviral activity (in words),"HCoV-229E; […], cell type not given",no activity
same,EC90,"HCoV-OC43; Betacoronavirus 1, MRC5, MRC-5, HCOV-OC43 (betaCoV), EC90 could be calculated in one experiment, read-out: Median EC90",4 µM
same,EC50,"HCoV-OC43; Betacoronavirus 1, OC43, MRC5, read-out: Median EC50",3.9 µM
same,"Infectious SARS-CoV2 virus in the lung, Avg",[5],137996 PFU/g Lung and 75729 PFU/g Lung
same,"Infectious SARS-CoV2 virus in the lung, Log10, Avg",[5],3.732 Log10 PFU/g Lung and 3.479 Log10 PFU/g Lung
